# Earlier results in publication PMC2970821 (Clinical Proteomics, 2010).
# Ends that are not written are not given here.
# Conditions: apparently generating ITIH4-25, ref [26]
sequence,measurement,value
RPGVLSSRQLGLPGPPDVPDHAAYHPF [ITIH4-27],Susceptibility to degradation of the synthetic peptide in plasma and serum,highest susceptibility to degradation
